Source: patent US10927123B2, “Modulators of the beta-3 adrenergic receptor useful for the treatment or prevention of disorders related thereto” (Arena Pharmaceuticals, Inc., priority 2016, dated 2021)
Entries after “also recorded” stand apart in the source; their conditions may differ.

How the values were obtained:
normal rats = test: Attenuation of negative contractile effect of BRL 37344 on left ventricular pressure in normal rats; type: in vivo, rat; conditions: test compound infusion 3, 10, 30 or 60 mg/kg, BRL 37344 bolus 3 μg/kg
Method: (§1) Beta-3 adrenergic receptor antagonists were evaluated for effects on cardiac contractility in normal and chronic heart failure (CHF) rats. Because beta-3 adrenergic receptor expression is weak in the normal rat heart, compounds were evaluated for the ability to attenuate the negative contractile effects of the beta-3 adrenergic receptor agonist BRL 37344 (Tocris Bioscience, Bristol, UK) in the normal rats. Because beta-3 adrenergic receptor expression is higher in the rat heart with CHF, a compound was evaluated for the ability to improve contractility compared to baseline in this CHF rat model.
A direct determination of left ventricular function was used for all rats to evaluate the effects of compounds on left ventricular contractility. Right carotid artery catheterization was used for contractility measurements. The rats were anesthetized with an intraperitoneal injection of INACTIN® (Cat #T-133, Sigma, St. Louis, Mo.) (100 mg/kg body weight), and a Millar MIKRO-TIP® pressure catheter (Cat #SPR-320NR, Millar, Inc., Houston, Tex.) was passed through the carotid artery into left ventricle. Left ventricular pressure (LVP) was monitored by LabChart with POWERLAB® Data Acquisition System (ADlnstruments, Sydney, Australia).
Jugular vein catheterization was used for compound administration. A silastic catheter (Cat #427411, BD, Franklin Lakes, N.J.) was introduced into the jugular vein, and a right venous catheter was connected to an automated drug delivery system (11 Plus Syringe Pump, Harvard Apparatus, Holliston, Mass.).
In the normal rats, 3 mg/kg, 10 mg/kg, 30 mg/kg, or 60 mg/kg of test compounds were administered starting 30-45 minutes after catheter implantation. A bolus injection of BRL 37344 (3 μg/kg) was administered via the left jugular vein 15-20 minutes after test compound infusion was started, and five minutes before compound infusion was stopped. A blood sample (800 μl) was then taken from the left venous catheter five minutes after the bolus injection of BRL 37344 (FIG. 25).

[1] = test system: chronic heart failure (CHF) rats; test: Left ventricular contractility in chronic heart failure (CHF) rats; type: in vivo, rat
Method: as §1, with “model. […]” for “model.”
Heart failure was evaluated weekly following surgery by testing impaired left ventricular function by echocardiography. Left ventricle end-diastolic volume (LVEDV) and left ventricle end-systolic volume (LVESV) were measured for at least three consecutive cardiac cycles in long-axis view images. Ejection Fraction (EF %) was calculated using the following formula: EF %=(LVEDV−LVESV)/LVEDV. […]
A direct determination of left ventricular function was used for all rats to evaluate the effects of compounds on left ventricular contractility. […] Left ventricular pressure (LVP) was monitored by LabChart with POWERLAB® Data Acquisition System (ADlnstruments, Sydney, Australia). […]
Development of CHF was monitored by echocardiography in rats after the surgically-induced myocardial infarction. […]

[2] = target: Beta-3 Adrenergic Receptor (Homo sapiens (Human), UniProt P13945); test: HTRF cAMP antagonist assay (IC50 determination); type: cell-based; conditions: CHO-K1 cells stably expressing recombinant receptor; antagonism of isoproterenol at EC90; cAMP readout
In short: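 CHO-K1 cells stably expressing the recombinant receptor were preincubated with compound (10-point, 5-fold dilutions; top final typically 10 or 100 μM) in PBS with 1 mM IBMX, then stimulated with isoproterenol at its EC90 for 1 h at room temperature. cAMP was read by HTRF against an on-plate standard curve.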

Sequence of Beta-3 Adrenergic Receptor (P13945 whole entry, species assumed): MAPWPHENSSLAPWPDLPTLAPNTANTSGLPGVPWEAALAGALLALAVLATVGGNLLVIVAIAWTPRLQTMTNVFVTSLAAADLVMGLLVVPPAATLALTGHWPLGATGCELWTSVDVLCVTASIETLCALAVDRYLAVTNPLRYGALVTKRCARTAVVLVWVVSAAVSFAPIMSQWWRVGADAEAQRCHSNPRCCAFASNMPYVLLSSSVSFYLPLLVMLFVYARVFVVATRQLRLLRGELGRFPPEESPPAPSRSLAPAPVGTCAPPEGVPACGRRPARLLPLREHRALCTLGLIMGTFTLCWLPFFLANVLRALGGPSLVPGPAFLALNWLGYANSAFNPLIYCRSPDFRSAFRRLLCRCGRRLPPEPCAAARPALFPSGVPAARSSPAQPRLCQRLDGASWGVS

IC50 [2] [nM] | SMILES | inhibition of the negative effect of beta-3 adrenergic receptor agonist BRL on LVP (normal rats) | contractility compared to baseline ([1]; rat with CHF, infusion 10 mg/kg then 30 mg/kg, 10 minutes each) | inhibition of negative effects of BRL on LVP in a rat with heart failure (figure legend) ([1]; rat with heart failure, FIG. 32)
25.1 | O=S(=O)(CCO)c1cccc(OC[C@@H](O)CN[C@H]2COC3(CCN(S(=O)(=O)c4cnc5ccccc5c4)CC3)C2)c1 [Compound 88, (S)-1-(3-(2-hydroxyethylsulfonyl)phenoxy)-3-((R)-8-(quinolin-3-ylsulfonyl)-1-oxa-8-azaspiro[4.5]decan-3-ylamino)propan-2-ol] | dose-dependently inhibited; also recorded: inhibition of negative effects of BRL on LVP | trend toward improved contractility with increased dosage | inhibition of negative effects of BRL on LVP
53.2 | NC(=O)CS(=O)(=O)c1cccc(OC[C@@H](O)CN[C@H]2COC3(CCN(S(=O)(=O)c4cnc5ccccc5c4)CC3)C2)c1 [Compound 123, 2-(3-((S)-2-hydroxy-3-((R)-8-(quinolin-3-ylsulfonyl)-1-oxa-8-azaspiro[4.5]decan-3-ylamino)propoxy)phenylsulfonyl)acetamide] | dose-dependently inhibited; also recorded: inhibition of negative effects of BRL on LVP |  | 
17.5 | CN1CCOc2ncc(S(=O)(=O)N3CCC4(CC3)C[C@@H](NC[C@H](O)COc3cccc(S(=O)(=O)C5CC5)c3)CO4)cc21 [Compound 154, (S)-1-(3-(cyclopropylsulfonyl)phenoxy)-3-((R)-8-(1-methyl-2,3-dihydro-1H-pyrido[2,3-b][1,4]oxazin-7-ylsulfonyl)-1-oxa-8-azaspiro[4.5]decan-3-ylamino)propan-2-ol] | dose-dependently inhibited; also recorded: inhibition of negative effects of BRL on LVP |  | 
17.3 | CCOc1ccc(-c2ccc(CN)cc2)cc1S(=O)(=O)N1CCC2(CC1)C[C@H](NC[C@H](O)COc1cccc(S(=O)(=O)C3(CO)CC3)c1)CO2 [Compound 163, (S)-1-((S)-8-(4′-(aminomethyl)-4-ethoxybiphenyl-3-ylsulfonyl)-1-oxa-8-azaspiro[4.5]decan-3-ylamino)-3-(3-(1-(hydroxymethyl)cyclopropylsulfonyl)phenoxy)propan-2-ol] | dose-dependently inhibited; also recorded: inhibition of negative effects of BRL on LVP |  | 
37.6 | CCn1cc(S(=O)(=O)N2CCC3(CC2)C[C@@H](NC[C@H](O)COc2cccc(S(C)(=O)=O)c2)CO3)c(=O)c2ccccc21 [Compound 310, 1-ethyl-3-((R)-3-((S)-2-hydroxy-3-(3-(methylsulfonyl)phenoxy)propylamino)-1-oxa-8-azaspiro[4.5]decan-8-ylsulfonyl)quinolin-4(1H)-one] | dose-dependently inhibited; also recorded: inhibition of negative effects of BRL on LVP |  | 
28.9 | Cc1cccc2c(O)c(S(=O)(=O)N3CCC4(CC3)C[C@@H](NC[C@H](O)COc3cccc(S(=O)(=O)C5CC5)c3)CO4)cnc12 [Compound 327, 3-((R)-3-((S)-3-(3-(cyclopropylsulfonyl)phenoxy)-2-hydroxypropylamino)-1-oxa-8-azaspiro[4.5]decan-8-ylsulfonyl)-8-methylquinolin-4-ol] |  |  | 
35.4 | O=S(=O)(c1cccc(OC[C@@H](O)CN[C@H]2COC3(CCN(S(=O)(=O)c4cnc5c(F)cccc5c4O)CC3)C2)c1)C1CC1 [Compound 328, 3-((R)-3-((S)-3-(3-(cyclopropylsulfonyl)phenoxy)-2-hydroxypropylamino)-1-oxa-8-azaspiro[4.5]decan-8-ylsulfonyl)-8-fluoroquinolin-4-ol] |  |  | 
29.5 | O=S(=O)(c1cccc(OC[C@@H](O)CN[C@H]2COC3(CCN(S(=O)(=O)c4cnc5cc(F)ccc5c4O)CC3)C2)c1)C1CC1 [Compound 329, 3-((R)-3-((S)-3-(3-(cyclopropylsulfonyl)phenoxy)-2-hydroxypropylamino)-1-oxa-8-azaspiro[4.5]decan-8-ylsulfonyl)-7-fluoroquinolin-4-ol] |  |  | 
70.1 | Cc1ccc2c(O)c(S(=O)(=O)N3CCC4(CC3)C[C@@H](NC[C@H](O)COc3cccc(S(=O)(=O)C5CC5)c3)CO4)cnc2c1 [Compound 330, 3-((R)-3-((S)-3-(3-(cyclopropylsulfonyl)phenoxy)-2-hydroxypropylamino)-1-oxa-8-azaspiro[4.5]decan-8-ylsulfonyl)-7-methylquinolin-4-ol] |  |  | 
30 | CCn1cc(S(=O)(=O)N2CCC3(CC2)C[C@@H](NC[C@H](O)COc2cccc(S(=O)(=O)C(C)C)c2)CO3)c(=O)c2cccc(F)c21 [Compound 331, 1-ethyl-8-fluoro-3-((R)-3-((S)-2-hydroxy-3-(3-(isopropylsulfonyl)phenoxy)propylamino)-1-oxa-8-azaspiro[4.5]decan-8-ylsulfonyl)quinolin-4(1H)-one] |  |  | 
42.3 | CCn1cc(S(=O)(=O)N2CCC3(CC2)C[C@@H](NC[C@H](O)COc2cccc(S(=O)(=O)C(C)C)c2)CO3)c(=O)c2ccccc21 [Compound 332, 1-ethyl-3-((R)-3-((S)-2-hydroxy-3-(3-(isopropylsulfonyl)phenoxy)propylamino)-1-oxa-8-azaspiro[4.5]decan-8-ylsulfonyl)quinolin-4(1H)-one] |  |  | 
16.3 | CCn1cc(S(=O)(=O)N2CCC3(CC2)C[C@@H](NC[C@H](O)COc2cccc(S(=O)(=O)C4CC4)c2)CO3)c(=O)c2cccc(F)c21 [Compound 333, 3-((R)-3-((S)-3-(3-(cyclopropylsulfonyl)phenoxy)-2-hydroxypropylamino)-1-oxa-8-azaspiro[4.5]decan-8-ylsulfonyl)-1-ethyl-8-fluoroquinolin-4(1H)-one] |  |  | 
79.9 | CS(=O)(=O)c1ccc(OC[C@@H](O)CNC2COC3(CCN(S(=O)(=O)c4ccc5ccccc5c4)CC3)C2)cc1 (stereo partly drawn) [Compound 334, (2S)-1-(4-(methylsulfonyl)phenoxy)-3-(8-(naphthalen-2-ylsulfonyl)-1-oxa-8-azaspiro[4.5]decan-3-ylamino)propan-2-ol] |  |  | 
14.4 | CS(=O)(=O)Cc1cccc(OC[C@@H](O)CNC2COC3(CCN(S(=O)(=O)c4ccc5ccccc5c4)CC3)C2)c1 (stereo partly drawn) [Compound 335, (2S)-1-(3-(methylsulfonylmethyl)phenoxy)-3-(8-(naphthalen-2-ylsulfonyl)-1-oxa-8-azaspiro[4.5]decan-3-ylamino)propan-2-ol] |  |  | 
102 | CS(=O)(=O)Cc1cccc(OC[C@@H](O)CN[C@H]2COC3(CCN(S(=O)(=O)c4ccc5ncccc5c4)CC3)C2)c1 [Compound 336, (S)-1-(3-(methylsulfonylmethyl)phenoxy)-3-((R)-8-(quinolin-6-ylsulfonyl)-1-oxa-8-azaspiro[4.5]decan-3-ylamino)propan-2-ol] |  |  | 
1690 | CCn1cc(S(=O)(=O)N2CCC3(CC2)C[C@@H](NC[C@@H](O)COc2cccc(S(C)(=O)=O)c2)CO3)c(=O)c2ccccc21 [Compound 337, 1-ethyl-3-((R)-3-((R)-2-hydroxy-3-(3-(methylsulfonyl)phenoxy)propylamino)-1-oxa-8-azaspiro[4.5]decan-8-ylsulfonyl)quinolin-4(1H)-one] |  |  | 
32.2 | CCn1cc(S(=O)(=O)N2CCC3(CC2)C[C@H](NC[C@H](O)COc2cccc(S(C)(=O)=O)c2)CO3)c(=O)c2ccccc21 [Compound 338, 1-ethyl-3-((S)-3-((S)-2-hydroxy-3-(3-(methylsulfonyl)phenoxy)propylamino)-1-oxa-8-azaspiro[4.5]decan-8-ylsulfonyl)quinolin-4(1H)-one] |  |  | 
